Data on 14 molecules can be found in ChEMBL document CHEMBL1201862, “PubChem BioAssay data set” (2004).

Test [1] can be described thus: cytotoxicity in HPDE-C7 cells, cell-based, fluorescence, HTS (AID 430). The settings on record: Homo sapiens. The test is classed as functional.
Test [2] relates to HEK293. The test is described as follows: NOD2 signaling inhibitors in MDP-stimulated cells, cell-based, uHTS, luminescence (AID 2001). The note with it: Homo sapiens. The test is classed as functional.
The nature of test [3]: cytotoxicity in KRAS-transformed pancreatic duct cells, primary screen, cell-based, fluorescence, HTS (AID 431).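 Also: cell line used: HPDE-C7K.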 The test is classed as functional. The note with it: Homo sapiens.
Test [4] deals with HEK293. Put plainly: cells. The test is classed as functional, cell-based. The note with it: Homo sapiens.
The test system of the next test is Streptococcus. Put plainly: Group A Streptococcus viability loss, dose response, counter-screen for streptokinase expression inhibitor project, luminescence, BacTiterGlo (AID 1915).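 Also: potency for reduction of bacterial viability or growth.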 The test is classed as functional, organism-based. On the technique in general: Counterscreens check selectivity or assay interference.
The subject of test [5] is Streptococcus sp. 'group A'. Put plainly: growth inhibition of control SK(-) GAS strain, dose response, counter-screen for streptokinase expression inhibitor project, luminescence, kanamycin, BacTiterGlo, confirmation (AID 1900). The test is classed as functional, organism-based.
In test [6] the test system is HEK293. The test is described as follows: NOD1 signaling inhibitors, primary screen, cell-based, luminescence, uHTS (AID 1578). The settings on record: Homo sapiens. The test is classed as functional.
Test [7] deals with HEK293. The test is described as follows: cells. The test is classed as functional, cell-based. The settings on record: Homo sapiens. This is another data set of the same source.
The target of another test is T1, Streptokinase A (Streptococcus pyogenes serotype M1, UniProt P10520).
T1 sequence (P10520 whole entry): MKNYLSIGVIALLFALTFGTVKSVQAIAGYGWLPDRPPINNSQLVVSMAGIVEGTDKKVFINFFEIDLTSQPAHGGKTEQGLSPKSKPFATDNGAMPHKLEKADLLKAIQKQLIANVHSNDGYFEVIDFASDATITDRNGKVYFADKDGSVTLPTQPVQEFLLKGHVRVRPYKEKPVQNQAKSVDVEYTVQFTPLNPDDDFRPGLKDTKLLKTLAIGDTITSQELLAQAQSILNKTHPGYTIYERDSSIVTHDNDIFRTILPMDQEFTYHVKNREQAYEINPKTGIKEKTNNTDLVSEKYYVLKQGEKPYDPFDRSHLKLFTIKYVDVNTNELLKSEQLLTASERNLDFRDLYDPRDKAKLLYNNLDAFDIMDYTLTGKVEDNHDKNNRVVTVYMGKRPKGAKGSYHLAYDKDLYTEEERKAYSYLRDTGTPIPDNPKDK
The test is described as follows: S. pyogenes streptokinase expression inhibitors, potency, dose response, plasminogen activation absorbance, OD405 (AID 1914).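 Also: secreted streptokinase activity via plasminogen activation per viability signal from cell pellet.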 The test is classed as functional, Streptococcus pyogenes M1 GAS.

A short description of test [8]: LGR2 antagonists, dose response, cell-based, HEK293, CRE-luciferase reporter, cherry pick, set 2 (AID 743343).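 Also: transfected cells were stimulated with diluted bursicon conditioned medium after compound addition.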 The test is classed as functional. In general terms: In a reporter assay the amount or activity of a reporter protein is the signal.
A short description of test [9]: MC4R antagonists, dose response, counter-screen for LGR2 antagonist project, cell-based, plate reader, cherry pick (AID 743444).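 Also: transfected HEK 293 cells stimulated with alpha-MSH peptide; potency of inhibitors of the alpha-MSH evoked signal.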 The test is classed as functional.
The subject of test [10] is HEK293. The test is described as follows: inhibitors of LMP1-driven NF-kB reporter, dose response, cell-based, HEK293, luciferase, cherry-pick (AID 588343). The note with it: Homo sapiens. The test is classed as functional.
For test [11], the target named is G-protein coupled receptor 55 (Homo sapiens, UniProt Q9Y2T6). The test is described as follows: GPR55 antagonists blocking LPI-driven arrestin recruitment, primary screen, imaging, U2OS, beta-arrestin-GFP, LPI agonist (AID 2013).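 Also: antagonist potency measured as reduced agonist-driven arrestin aggregation.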 The test is classed as functional. For orientation: Arrestin recruitment assays detect the binding of arrestin to an activated receptor.
G-protein coupled receptor 55, sequence (Q9Y2T6 whole entry): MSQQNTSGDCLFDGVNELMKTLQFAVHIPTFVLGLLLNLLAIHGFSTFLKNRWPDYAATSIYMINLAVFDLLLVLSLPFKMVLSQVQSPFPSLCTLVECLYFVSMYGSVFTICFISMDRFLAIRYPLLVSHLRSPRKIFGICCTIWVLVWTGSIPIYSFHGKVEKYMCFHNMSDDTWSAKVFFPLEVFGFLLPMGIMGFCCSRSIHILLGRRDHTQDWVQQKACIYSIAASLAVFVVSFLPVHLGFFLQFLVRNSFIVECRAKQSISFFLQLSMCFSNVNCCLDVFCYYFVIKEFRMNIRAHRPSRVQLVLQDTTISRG

Test [12] in a line: inhibitors of HIV Env-driven cell fusion, dose response, cherry-pick (AID 652057). The test is classed as functional, cell-based.
A short description of test [13]: off-target signal loss in HeLa-CEM21 co-culture – HeLa F-luc CTL cells, cherry-picked, counter-screen for HIV-1 Env fusion inhibitor project, dose response (AID 652040).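 Also: potency for signal decrease marking cytotoxic or nonspecific inhibition.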 The test is classed as functional, cell-based.
A short description of test [14]: inhibitors of clade B AD8 Env fusion, dose response, cell-based, cherry-pick (AID 652062).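 Also: luciferase signal from cell-cell fusion driven by HIV-1 clade B AD8 Env; potency is for inhibitors of fusion seen as a drop in luminescence.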 The test is classed as functional.
A short description of test [15]: CEM21 lymphoblast cell cytotoxicity, dose response, cytotoxicity control for viral fusion inhibitor project, CellTiter-Glo luminescence, cherry-picked (AID 652042).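 Also: potency for signal decrease meaning cytotoxicity.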 The test is classed as functional, cell-based.
The target of test [16] is T2, Oxysterols receptor LXR-beta (Homo sapiens, UniProt P55055).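 Also: agonist activity at LXR measured by a cell-based luminescence readout across a dose range, run as a counterscreen for daf-12 agonists; HEK293 cells with Gal4-LXR fusion and GAL4-driven luciferase reporter; potency for activation of Gal4-LXR reporter so compounds are agonists.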
T2 sequence (P55055 whole entry): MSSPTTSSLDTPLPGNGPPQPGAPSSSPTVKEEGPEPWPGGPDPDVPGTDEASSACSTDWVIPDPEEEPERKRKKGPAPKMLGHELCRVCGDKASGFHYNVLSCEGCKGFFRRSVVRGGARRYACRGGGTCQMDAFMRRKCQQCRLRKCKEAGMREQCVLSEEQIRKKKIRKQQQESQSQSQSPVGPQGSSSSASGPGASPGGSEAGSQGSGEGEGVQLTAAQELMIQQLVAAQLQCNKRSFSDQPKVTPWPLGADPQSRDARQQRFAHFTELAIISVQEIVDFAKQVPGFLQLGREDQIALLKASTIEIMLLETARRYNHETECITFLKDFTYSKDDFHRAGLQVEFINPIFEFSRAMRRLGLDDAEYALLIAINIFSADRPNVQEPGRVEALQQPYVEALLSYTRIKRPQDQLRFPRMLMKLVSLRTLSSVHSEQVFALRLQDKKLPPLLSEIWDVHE
The test is classed as functional, cell-based.

Test [17] in a line: HEp-2 cell cytotoxicity, dose response, cytotoxicity control for RSV inhibitor project, HTS (AID 2410). The test is classed as functional. The settings on record: human respiratory syncytial virus.
The nature of test [18]: cells. The test is classed as functional, cell-based.
Test [19] in a line: cells. The test is classed as functional, cell-based. This is another data set of the same source.
Test [20] is described as follows: ZM109 Env clade C HIV-1 fusion inhibitors, dose response, HeLa effector, CEM target cells, luciferase, cherry-pick (AID 652058). The test is classed as functional, cell-based.
Test [21] in a line: Luminescence Cell-Based Dose Retest to Confirm Inhibitors of Cancer Stem Cells. [Related pubchem assays (depositor defined):AID2717, AID2721]. The test is classed as functional. The settings on record: Homo sapiens.
A short description of test [22]: Concentration-dependent survival of SW480 colon cancer line, luminescence detection with CellTiter-Glo, half-maximal inhibitory concentration (AID 1117338). The test is classed as functional.
Test [23] is described as follows: cytotoxicity toward Colo320 cells – cell-based, CellTiter-Glo luminescence, IC50, dose response (AID 1117334). The note with it: COLO 320. The test is classed as functional.
Test [24] can be described thus: CellTiter-Glo luminescent dose response of DLD-1 viability loss (AID 1117352). The test is classed as functional.
Test [25] is described as follows: cytotoxicity toward HCT116 cells – cell-based, CellTiter-Glo luminescence, IC50, dose response (AID 1117332). The test is classed as functional. The settings on record: HCT-116.
Test [26] can be described thus: RKO cell viability reduction, dose response, CellTiter-Glo luminescence (AID 1117322). The test is classed as functional.
Test [27] in a line: HCT116 cell viability decrease, GSK3B pretreatment – CellTiter-Glo, IC50, dose response (AID 1117339). The test is classed as functional. The settings on record: HCT-116.
The nature of test [28]: cytotoxicity toward HT-29 cells – cell-based, CellTiter-Glo luminescence, IC50, dose response (AID 1117330). The test is classed as functional.
The nature of test [29]: SNU-C1 cell viability reduction, dose response, CellTiter-Glo luminescence (AID 1117323). The test is classed as functional, cell-based.

Calls of active or inactive are those of the source.

Turning to `Cc1conc1NC(c1cccs1)c1ccc2cccnc2c1O` (stereo not given), the EC50 (usually the concentration needed to bring the measured effect to its halfway point) in test [1] is 10.2 µM (active); in [3], 5.68 µM (active); with Streptococcus it was 7.33 µM (active); in test [5], 1.93 µM (active); in the test on HEK293 [6] it was > 20 µM (inactive); on Streptokinase A, > 150 µM (not active). Also, the IC50 (usually the midpoint of a concentration-inhibition curve) in the test on HEK293 [2] is 6.1 µM (active); in the test with HEK293 [4], > 20 µM (inactive); with HEK293 [7] it was 4.74 µM (active).
Consider `O=C(CN1C(=O)c2ccccc2S1(=O)=O)c1ccccc1F`, for which the values for the AC50 (in test [8]; in [9]; in the test on HEK293 [10]) were 2.28 µM (active), 4.05 µM (active) and 3.69 µM (active), respectively.
Regarding `O=C(NC(=S)NC1CCN(Cc2ccccc2)CC1)c1ccc(F)cc1`, in test [11], the IC50 is 4.67 µM (active).
As to `Cc1ccc(COC(=O)c2cc(S(=O)(=O)N3CCCCC3)ccc2N2CCOCC2)cc1`, the AC50 (commonly the concentration giving half of the maximal activity seen) in test [12] is 19.8 µM (active); in test [13] it was > 70 µM (inactive); in test [14], 10.6 µM (active); in test [15], 68.1 µM (active).
With `CCN(CC)S(=O)(=O)c1cc(C(=O)OCC(=O)Nc2ccc(-c3nc4ccc(C)cc4s3)cc2)ccc1F`, the AC50 in test [8] is 3.17 µM (active); in test [9], 3.11 µM (active). The EC50 in test [16] is > 67.5 µM (inactive). Also, the CC50 (as a rule, the concentration at which the toxic effect on the cells reaches its halfway point) in [17] was 11.4 µM (active).
Take `CCCSc1ncc(Cl)c(C(=O)Nc2ccc(S(=O)(=O)N3CC(C)OC(C)C3)cc2)n1` (stereo not given): the IC50 in [11] was 5.75 µM (active).
On the same count and under the same terms, the figure for `COc1ccc(C2c3ccc(O)cc3Oc3ncn(CC(C)C)c(=N)c32)cc1` (stereo not given) is 2.27 µM (active).
For the molecule `Cc1sc2ncnc(Sc3nnnn3-c3ccc(Cl)cc3)c2c1C`, the EC50 is 4.61 µM (active) in test [1], 5.19 µM (active) in test [3], > 350 µM (not active) in “cells [18]” and > 350 µM (not active) in “cells [19]”.
Turning to `CCc1ccc(C2CC(c3ccco3)=NN2S(C)(=O)=O)cc1` (stereo not given), the EC50 in test [16] is > 67.5 µM (inactive).
Take `CN1CC(c2ccccc2)C2(SC(=S)N(Cc3ccco3)C2=O)C12C(=O)Nc1ccccc12` (stereo not given): the AC50 is 18.4 µM (active) in test [20], 4.4 µM (active) in test [21], 17.6 µM (active) in test [12] and 20.3 µM (active) in test [15].
As for `CCCOC(=O)c1ccc(Oc2c(C)n[nH]c2-c2ccc(OC)cc2O)cc1`, the EC50 is 12.2 µM (active) in test [1]; 6.36 µM (active) in test [3]; 28.5 µM (active) in the test on Streptococcus; 14.1 µM (active) in test [5]; > 150 µM (not active) at Streptokinase A.
Regarding `c1ccc(Cc2cnc(N3CCN(Cc4csc5ccccc45)CC3)nc2)cc1`, the AC50 in [12] was 2.86 µM (active); in test [13] it was 65 µM (active); in test [14], 2.98 µM (active); in [15] it was 47.5 µM (active).
For `C=CC(C)(O)CCC=C(C)CCC=C(C)C` (stereo not given), the IC50 in test [22] is > 20 µM (inactive); in [23], 10.3 µM (inactive); in test [24], > 20 µM (inactive); in test [25], > 20 µM (inactive); in test [26], > 20 µM (inactive); in test [27], > 20 µM (inactive). Further, the IC50 in test [28] and in test [29] was > 20 µM (inactive) each time.
On to `CC/C(=N\NC(=O)c1ccoc1C)c1ccc(C)o1`, for which, in test [16], the EC50 is > 67.5 µM (inactive).
